Experimental data reported in patent US4088772A, “Methanodibenzocycloheptapyrroles” (E. I. Du Pont de Nemours and Company, priority 1975, dated 1978).
Where a name gives a salt, the structure may show the parent alone. Read-outs that look alike come from different tables or passages of the source.

Experiments:
in vivo = settings: mouse, in vivo, po
Method: (§1) Groups of five Carworth CF1 S female mice, 16-20 g each, were fasted 16-22 hours before use. The mice were put in opaque plastic "shoe-box" cages 15-30 min. before injection, and then treated orally with 4, 12, 36, 108 and 324 mg/kg of the compound to be tested as a 13 mg/ml solution in 1% aqueous distilled water solution of methylcellulose (Methocel®). Each dose was given in a standard volume of 0.45 ml. Observations were made at 0.5, 2 and 24 hours after dosing. ED50 values were calculated for each parameter including death (LD50). The ED50 and LD50 values are the doses at which 50% of the naimals would be expected to respond.
(§2) The mouse is placed on a stainless steel wire mesh screen (8 × 12 inches, 3 mesh per inch, 1/4 inch mesh openings) "shoe-box" lid (1 inch high) and is observed for normal activities, such as nose movements, head movements with apparent visual examination of the area, and/or walking around on the screen. Absence of or marked depression of these activities for 5 seconds constitutes loss of exploratory activity.
(§3) The mouse is picked up by the tail and placed on the screen with its head facing the observer. Bilateral eyelid closure of 50% or more two seconds after placement is considered ptosis.
(§4) The mouse is placed with its front paws on the edge of a stainless steel "shoe-box" cover, 1 inch high, covered with adhesive tape. Failure to remove both paws from the cover's edge within 5 seconds constitutes catatonia.
(§5) The observer gently strokes the abdominal musculature of the mouse with thumb and forefinger. Flaccidity (or rarely, tenseness) is recorded.
(§6) The mouse is gently swung by the tail toward a horizontal 12 gauge wire tautly stretched 25 cm above the bench. After the mouse grasps the wire with its forepaws, its posterior end is held directly below the wire. A normal mouse grasps the wire with its forepaws and immediately lifts its hind limbs to the wire. Failure to grasp the wire with the forepaws in both trials constitutes loss of the grip reflex; failure to lift the hind limbs to grasp the wire with at least one hind paw within 5 seconds constitutes loss of the lift reflex.
(§7) The mouse is placed on the bar 10-20 cm horizontally and 9 cm vertically from a Galton whistle adjusted for 13 kc (5 mm on the whistle scale) and is subjected to several short bursts of sound.
(§8) An effective tranquilizer should induce little or no tremor response. […] Tremors include fine or coarse and intermittent or continuous tremors.

female white mice = assay: animal or person; settings: oral; for ED50: Mus musculus, po; for ED50 / Catatonia ED50 / Exploratory Loss Visual ED50 / Muscle Tone ED50 / Ptosis ED50 / Reflexes Grip ED50 / Reflexes Lift ED50 / Reflexes Pinna ED50 / Tremors ED50: mice; for LD50 / Catatonia ED50 / Exploratory Loss Visual ED50 / Muscle Tone ED50 / Ptosis ED50 / Reflexes Grip ED50 / Reflexes Lift ED50 / Reflexes Pinna ED50 / Tremors ED50: Table 1; for LD50: 24-hour value
Method: as §1, §2, §3, §4, §5, §6, §7, §8

[1] = read-out: Catatonia ED50, Table III
[2] = read-out: Exploratory Loss Visual ED50, Table III
[3] = read-out: Muscle Tone ED50, Table III
[4] = read-out: Ptosis ED50, Table III
[5] = read-out: Reflexes Grip ED50, Table III
[6] = read-out: Reflexes Lift ED50, Table III
[7] = read-out: Reflexes Pinna ED50, Table III

Compound | LD50 at 24 h (in vivo) | ED50 (female white mice; [1]) | ED50 (female white mice; [2]) | ED50 (female white mice; [3]) | ED50 (female white mice; [4]) | ED50 (female white mice; [5]) | ED50 (female white mice; [6]) | ED50 (female white mice; [7]) | other results
O=[N+]([O-])c1ccc2c(c1)[C@]13C[C@H]2c2ccccc2[C@H]1CN(CC1CCCC1)C3 (relative stereo) [Example 63, 5-Nitro-2-cyclopentylmethyl-2,3,8,12b-tetrahydro-1H-3a,8-methanodibenzo[3,4:6,7]cyclohepta[1,2-c]pyrrole Hydrochloride] | > 324 mg/kg | 200 mg/kg | 12 mg/kg | 36 mg/kg | 7 mg/kg | > 324 mg/kg | 100 mg/kg | 20 mg/kg | –
Cl.Clc1ccc2c(c1)C1CN(CC3CCCCC3)CC13CC2c1ccccc13 (centres unmarked) [Example 81, 11-Chloro-2-cyclohexylmethyl-2,3,8,12b-tetrahydro-1H-3a,8-methanodibenzo[3,4:6,7]cyclohepta[1,2-c]-pyrrole Hydrochloride] | > 324 mg/kg | 19 mg/kg | 17 mg/kg | 12 mg/kg | < 3 mg/kg | > 324 mg/kg | 36 mg/kg | 11 mg/kg | –
5- and 11-Chloro-2-methyl-2,3,8,12b-tetrahydro-1H- 3a,8-methanodibenzo[3,4:6,7]cyclohepta[1,2-c]pyrrole [Example 43] | – | – | – | – | – | – | – | – | LD50 (female white mice): 200 mg/kg; Catatonia ED50 (female white mice): 100 mg/kg; Exploratory Loss Visual ED50 (female white mice): 7 mg/kg; Muscle Tone ED50 (female white mice): 20 mg/kg; Ptosis ED50 (female white mice): 20 mg/kg; Reflexes Grip ED50 (female white mice): 60 mg/kg; Reflexes Lift ED50 (female white mice): 20 mg/kg; Reflexes Pinna ED50 (female white mice): 20 mg/kg; Tremors ED50 (female white mice): 36 mg/kg
Cc1ccc2c(c1)[C@]13C[C@H]2c2ccccc2[C@H]1CN(CC1CCCC1)C3 (relative stereo) [Example 89, 5-Methyl-2-cyclopentylmethyl-2,3,8,12b-tetrahydro-1H-3a,8-methanodibenzo[3,4:6,7]cyclohepta[1,2-c]pyrrole] | > 81 mg/kg | 50 mg/kg | 9 mg/kg | 50 mg/kg | 15 mg/kg | < 81 mg/kg | 25 mg/kg | 15 mg/kg | –
C[N+]1([O-])C[C@@H]2c3ccccc3[C@@H]3C[C@@]2(C1)c1ccccc13 (relative stereo) [Methyl-N-oxide] | > 324 mg/kg | – | – | – | – | – | – | – | ED50 (in vivo): 36 mg/kg; ED50 (female white mice; read-out: Catatonia ED50, Table 1): 60 mg/kg; ED50 (female white mice; read-out: Exploratory Loss Visual ED50, Table 1): 60 mg/kg; ED50 (female white mice; read-out: Muscle Tone ED50, Table 1): 100 mg/kg; ED50 (female white mice; read-out: Ptosis ED50, Table 1): 36 mg/kg; ED50 (female white mice; read-out: Reflexes Grip ED50, Table 1): 200 mg/kg; ED50 (female white mice; read-out: Reflexes Lift ED50, Table 1): 36 mg/kg; ED50 (female white mice; read-out: Reflexes Pinna ED50, Table 1): 60 mg/kg
5- and 11-Chloro-2-cyclohexylmethyl-2,3,8,12b-tetrahydro-1H-3a,8-methanodibenzo[3,4:6,7]cyclohepta[1,2-c]pyrrole [Example 44] | – | – | – | – | – | – | – | – | LD50 (female white mice): > 324 mg/kg; Catatonia ED50 (female white mice): 19 mg/kg; Exploratory Loss Visual ED50 (female white mice): 17 mg/kg; Muscle Tone ED50 (female white mice): 12 mg/kg; Ptosis ED50 (female white mice): < 3 mg/kg; Reflexes Grip ED50 (female white mice): > 324 mg/kg; Reflexes Lift ED50 (female white mice): 36 mg/kg; Reflexes Pinna ED50 (female white mice): 11 mg/kg; Tremors ED50 (female white mice): > 324 mg/kg
CN1CC2c3cc(Cl)ccc3C3CC2(C1)c1ccccc13.Cl (centres unmarked) [Example 80, 11-Chloro-2-methyl-2,3,8,12b-tetrahydro-1H-3a,8-methanodibenzo[3,4:6,7]cyclohepta[1,2-c]pyrrole Hydrochloride] | 200 mg/kg | 100 mg/kg | 7 mg/kg | 20 mg/kg | 20 mg/kg | 60 mg/kg | 20 mg/kg | 20 mg/kg | –
